Source: paper PMC10743086, “Immunofluorescence-Based Assay for High-Throughput Analysis of Multidrug Resistance Markers in Non-Small Cell Lung Carcinoma Patient-Derived Cells” (Diagnostics, 2023)

Experiments:
Type in all cases: cell-based, human
[1] = system: ABCC1 expression in cancer cells (CK8/18+); experiment: Immunofluorescence assay of ABCC1 expression in patient-derived NSCLC cultures; details: 7 days
Description: (§1) Tissue samples were collected during surgery, and the NSCLC diagnosis, histological grade, stage, necrosis, and lymph node invasion status were determined by histopathological analysis. […] The surgical specimens were placed in a sterile tube containing antibiotic-antimycotic solution (Sigma-Aldrich Chemie GmbH, Taufkirchen, Germany) and immediately transported to the research laboratory for further processing.
(§2) Upon arrival, the tissue was manually chopped with a surgical blade in a Petri dish under sterile conditions. The samples were cut into 3–5 mm pieces and further dissociated using the Tumor Dissociation Kit (Miltenyi Biotec, Bergisch Gladbach, Germany). The Tumor Dissociation Kit was used to dissociate the cells from the tumor tissue according to the manufacturer’s instructions. The samples were incubated in a 37 °C orbital shaker (KS 4000 ic control, IKA, Königswinter, Germany) at 300 rpm for 90 min. After incubation, the dissociated tissue was placed in DMEM/Ham’s F12 (1:3 ratio) growth medium supplemented with 5% fetal bovine serum (Corning, NY, USA), antibiotic-antimycotic solution, 4 µg/mL hydrocortisone (Sigma-Aldrich Chemie GmbH, Taufkirchen, Germany), 1 µg/mL insulin (Sigma-Aldrich Chemie GmbH, Taufkirchen, Germany), 10 ng/mL epidermal growth factor (BioLegend, San Diego, CA, USA), and 24 µg/mL adenine (Sigma-Aldrich Chemie GmbH, Taufkirchen, Germany). The DMEM and Ham’s F12 growth media were purchased from Sigma-Aldrich Chemie GmbH (Taufkirchen, Germany).
(§3) The dissociated tissue was cultured in T-25 cell culture flasks until cell attachment was observed before the medium was replaced. If no cell attachment was achieved within 7 days, the sample was discarded. Successful patient-derived cultures were maintained at 37 °C in a humidified atmosphere with 5% CO2 and grown to confluence before undergoing further experiments. […] Partial trypsinization was performed by detaching the fibroblast-like cells with 1 mL of 0.05% trypsin for 1 min at 37 °C, followed by 2 min at room temperature (RT).
(§4) Vinorelbine and pemetrexed were purchased from Selleckchem (Houston, TX, USA). Carboplatin, cisplatin, docetaxel, etoposide, gemcitabine, gefitinib, and paclitaxel were purchased from Sigma-Aldrich Chemie GmbH (Taufkirchen, Germany). The cisplatin, carboplatin, and gemcitabine were dissolved in sterile water, while the etoposide, docetaxel, vinorelbine, paclitaxel, gefitinib, and pemetrexed were dissolved in DMSO and stored at −20 °C. Before treatment, all the stock solutions were freshly diluted in sterile water.
(§5) The primary cells were seeded in black, clear bottom 384-well cell culture microplates (Thermo Fisher Scientific, Waltham, MA, USA) in 50 µL of cell growth medium at a density of 1000 cells per well. The compounds were administered 72 h after seeding. The treatment lasted 7 days.
(§6) The immunofluorescence assay for the quantification of MDR markers was optimized to distinguish cancer cells from stromal cells using a cytokeratin 8/18 (CK8/18) antibody cocktail. The cells were fixed with 4% paraformaldehyde for 20 min at RT and washed three times with PBS using the Wellwash Versa microplate washer (Thermo Fisher Scientific, Waltham, MA, USA). The cells were then blocked with 2% bovine serum albumin (BSA) in PBS for 1 h at RT. […] Co-immunostaining with antibodies against MDR markers was performed to detect the presence of ABCB1, ABCC1, and ABCG2 in both the cancer and stromal cells. […] The secondary antibodies were incubated with the cells at RT for 2 h in the dark. […] Finally, the cells were washed three times with PBS and stored at 4 °C in the dark before imaging.

[2] = system: ABCB1 expression in cancer cells (CK8/18+); experiment: Immunofluorescence assay of ABCB1 expression in patient-derived NSCLC cultures; details: 7 days
Description: as §1, §2, §3, §4, §5, §6

[3] = system: ABCC1 expression in non-cancer cells (CK8/18-); experiment: Immunofluorescence assay of ABCC1 expression in patient-derived NSCLC cultures, non-cancer cells; details: sample TR58, chemotherapeutics, 7 days
Description: as §1, §2, §3, §4, §5, §6

MRC-5 cells = experiment: Cytotoxicity by immunofluorescence cell scoring (cell counts), normal fibroblasts; details: Homo sapiens, 24 h treatment
Description: as §4
The compounds were administered 48 h after seeding. The treatment lasted 24 h.
as §6
The fluorescently labeled cells were imaged using the ImageXpress Pico Automated Cell Imaging System (Molecular Devices, San Jose, CA, USA) with a 4x objective after determining the appropriate exposure time for each illumination filter. Analysis of the obtained images was performed using CellReporterXpress software v. 2.8.2.669 (Molecular Devices). The cytotoxicity of the compounds was determined using the Cell Scoring Analysis Protocol. […] Expression of MDR markers was determined using the Multi-Wavelength Cell Scoring Analysis Protocol.

[4] = culture TR58, cancer cells (CK8/18+)
[5] = culture TR64, cancer cells (CK8/18+)
[6] = culture TR65, cancer cells (CK8/18+)
[7] = culture TR84, cancer cells (CK8/18+)
[8] = culture TR87, cancer cells (CK8/18+)
[9] = MRC5, 24 h, MRC-5 (co-culture with NCI-H460)
[10] = MRC5, MRC-5 (co-culture with NCI-H460/R)
[11] = MRC5, 24 h, MRC-5 (co-culture with NCI-H460/R)

| SMILES | ABCC1 expression [1, 4] | ABCC1 expression [1, 5] | ABCC1 expression [1, 6] | ABCC1 expression [1, 7] | ABCC1 expression [1, 8] | ABCB1 Expression [2, 4] | ABCB1 Expression [2, 5] | ABCB1 Expression [2, 6] | ABCB1 Expression [2, 7] | ABCB1 Expression [2, 8] | ABCC1 expression in CK8/18− cells [3] | IC50 (MRC-5 cells; [9]) [µM] | IC50 (MRC-5 cells; MRC5, 24 h, MRC-5 monoculture) [µM] | IC50 (MRC-5 cells; [10]) [µM] | IC50 (MRC-5 cells; [11]) [µM] |
| --- | --- | --- | --- | --- | --- | --- | --- | --- | --- | --- | --- | --- | --- | --- | --- |
| CC(=O)O[C@@]12CO[C@@H]1C[C@H](O)[C@@]1(C)C(=O)[C@H](O)C3=C(C)[C@@H](OC(=O)[C@H](O)[C@@H](NC(=O)OC(C)(C)C)c4ccccc4)C[C@@](O)([C@@H](OC(=O)c4ccccc4)[C@H]21)C3(C)C [Docetaxel, docetaxel] | no change | increase (An increase in ABCB1, ABCC1, or ABCG2 expression of at least 20% at a minimum of one concentration is shown in the table.) | increase (An increase in ABCB1, ABCC1, or ABCG2 expression of at least 20% at a minimum of one concentration is shown in the table.) | increase (An increase in ABCB1, ABCC1, or ABCG2 expression of at least 20% at a minimum of one concentration is shown in the table.) | increase (An increase in ABCB1, ABCC1, or ABCG2 expression of at least 20% at a minimum of one concentration is shown in the table.) | no change | increase (An increase in ABCB1, ABCC1, or ABCG2 expression of at least 20% at a minimum of one concentration is shown in the table.) | no change | increase (An increase in ABCB1, ABCC1, or ABCG2 expression of at least 20% at a minimum of one concentration is shown in the table.) | increase (An increase in ABCB1, ABCC1, or ABCG2 expression of at least 20% at a minimum of one concentration is shown in the table.) | elevated | > 5 | > 5 | > 5 |  |
| COc1cc([C@@H]2c3cc4c(cc3[C@@H](O[C@@H]3O[C@@H]5CO[C@@H](C)O[C@H]5[C@H](O)[C@H]3O)[C@H]3COC(=O)[C@H]23)OCO4)cc(OC)c1O [Etoposide, etoposide] | no change | increase (An increase in ABCB1, ABCC1, or ABCG2 expression of at least 20% at a minimum of one concentration is shown in the table.) | increase (An increase in ABCB1, ABCC1, or ABCG2 expression of at least 20% at a minimum of one concentration is shown in the table.) | increase (An increase in ABCB1, ABCC1, or ABCG2 expression of at least 20% at a minimum of one concentration is shown in the table.) | increase (An increase in ABCB1, ABCC1, or ABCG2 expression of at least 20% at a minimum of one concentration is shown in the table.) | no change | increase (An increase in ABCB1, ABCC1, or ABCG2 expression of at least 20% at a minimum of one concentration is shown in the table.) | increase (An increase in ABCB1, ABCC1, or ABCG2 expression of at least 20% at a minimum of one concentration is shown in the table.) | increase (An increase in ABCB1, ABCC1, or ABCG2 expression of at least 20% at a minimum of one concentration is shown in the table.) | increase (An increase in ABCB1, ABCC1, or ABCG2 expression of at least 20% at a minimum of one concentration is shown in the table.) |  | > 30 | > 30 |  | > 30 |
| Nc1nc2[nH]cc(CCc3ccc(C(=O)N[C@@H](CCC(=O)O)C(=O)O)cc3)c2c(=O)[nH]1 [Pemetrexed, pemetrexed] | no change | no change | increase (An increase in ABCB1, ABCC1, or ABCG2 expression of at least 20% at a minimum of one concentration is shown in the table.) | increase (An increase in ABCB1, ABCC1, or ABCG2 expression of at least 20% at a minimum of one concentration is shown in the table.) | increase (An increase in ABCB1, ABCC1, or ABCG2 expression of at least 20% at a minimum of one concentration is shown in the table.) | no change | no change | no change | increase (An increase in ABCB1, ABCC1, or ABCG2 expression of at least 20% at a minimum of one concentration is shown in the table.) | increase (An increase in ABCB1, ABCC1, or ABCG2 expression of at least 20% at a minimum of one concentration is shown in the table.) |  | > 300 | > 300 | > 300 |  |
| CCC1=C[C@@H]2CN(C1)Cc1c([nH]c3ccccc13)[C@@](C(=O)OC)(c1cc3c(cc1OC)N(C)[C@H]1[C@@](O)(C(=O)OC)[C@H](OC(C)=O)[C@]4(CC)C=CCN5CC[C@]31[C@@H]54)C2 [Vinorelbine] | no change | increase (An increase in ABCB1, ABCC1, or ABCG2 expression of at least 20% at a minimum of one concentration is shown in the table.) | increase (An increase in ABCB1, ABCC1, or ABCG2 expression of at least 20% at a minimum of one concentration is shown in the table.) | increase (An increase in ABCB1, ABCC1, or ABCG2 expression of at least 20% at a minimum of one concentration is shown in the table.) | increase (An increase in ABCB1, ABCC1, or ABCG2 expression of at least 20% at a minimum of one concentration is shown in the table.) | no change | increase (An increase in ABCB1, ABCC1, or ABCG2 expression of at least 20% at a minimum of one concentration is shown in the table.) | increase (An increase in ABCB1, ABCC1, or ABCG2 expression of at least 20% at a minimum of one concentration is shown in the table.) | increase (An increase in ABCB1, ABCC1, or ABCG2 expression of at least 20% at a minimum of one concentration is shown in the table.) | increase (An increase in ABCB1, ABCC1, or ABCG2 expression of at least 20% at a minimum of one concentration is shown in the table.) |  | 0.477 | > 1 |  | > 1 |
